Test results reported in patent US20230144824A1, “1H-PYRAZOLO[4,3-d]PYRIMIDINE COMPOUNDS AS TOLL-LIKE RECEPTOR 7 (TLR7) AGONISTS” (BRISTOL-MYERS SQUIBB COMPANY, priority 2020, published 2023).
Where two headings read alike, the source gives them in different places.

Tests used:
human TLR7 = biological target: T1, human TLR7 (Homo sapiens, UniProt Q9NYK1); test: Human TLR7 agonist activity assay (HEK-Blue TLR7 SEAP reporter); format: cell-based; settings: HEK-Blue TLR7 cells, 18 h treatment, average where assay performed multiple times, read-out: hTLR7 Agonism EC50
T1 construct: host or cells: HEK-Blue TLR7 cells (engineered human embryonic kidney cells)
T1 sequence (Q9NYK1 27-1049): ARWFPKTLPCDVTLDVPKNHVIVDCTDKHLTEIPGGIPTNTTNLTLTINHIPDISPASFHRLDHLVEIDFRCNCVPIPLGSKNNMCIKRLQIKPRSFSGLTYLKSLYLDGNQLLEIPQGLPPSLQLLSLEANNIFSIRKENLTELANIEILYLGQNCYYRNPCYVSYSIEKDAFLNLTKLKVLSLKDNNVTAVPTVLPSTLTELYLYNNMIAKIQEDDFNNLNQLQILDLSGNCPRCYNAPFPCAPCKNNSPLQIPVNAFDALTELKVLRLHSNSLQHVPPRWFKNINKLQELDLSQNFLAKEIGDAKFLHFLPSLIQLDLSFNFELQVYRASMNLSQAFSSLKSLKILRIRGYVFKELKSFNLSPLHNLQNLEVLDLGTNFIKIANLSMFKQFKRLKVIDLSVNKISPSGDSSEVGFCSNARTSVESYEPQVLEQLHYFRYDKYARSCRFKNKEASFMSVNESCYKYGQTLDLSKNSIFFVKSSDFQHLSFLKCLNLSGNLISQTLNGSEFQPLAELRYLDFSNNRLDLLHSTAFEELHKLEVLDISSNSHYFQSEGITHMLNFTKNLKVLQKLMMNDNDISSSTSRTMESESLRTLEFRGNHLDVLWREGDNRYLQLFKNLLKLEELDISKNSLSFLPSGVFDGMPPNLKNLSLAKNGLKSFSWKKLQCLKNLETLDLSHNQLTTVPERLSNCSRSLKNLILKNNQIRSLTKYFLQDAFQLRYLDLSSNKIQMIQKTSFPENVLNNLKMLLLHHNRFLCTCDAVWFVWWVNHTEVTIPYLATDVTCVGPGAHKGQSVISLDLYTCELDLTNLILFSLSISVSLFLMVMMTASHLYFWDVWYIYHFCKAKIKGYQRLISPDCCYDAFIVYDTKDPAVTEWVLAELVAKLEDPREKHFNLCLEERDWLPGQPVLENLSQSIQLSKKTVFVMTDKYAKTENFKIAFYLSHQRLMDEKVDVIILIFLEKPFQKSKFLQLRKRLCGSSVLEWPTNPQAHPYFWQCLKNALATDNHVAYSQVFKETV
Protocol: This procedure describes a method for assaying human TLR7 (hTLR7) agonist activity of the compounds disclosed in this specification.
HEK-Blue™ TLR7 cells were added to each well of a 384-well tissue-culture plate (15,000 cells per well) and incubated 16-18 h at 37° C., 5% CO2. Compounds (100 nl) were dispensed into wells containing the HEK-Blue™ TLR cells and the treated cells were incubated at 37° C., 5% CO2. After 18 h treatment ten microliters of freshly-prepared Quanti-Blue™ reagent (Invivogen) was added to each well, incubated for 30 min (37° C., 5% CO2) and SEAP levels measured using an Envision plate reader (OD=620 nm). The half maximal effective concentration values (EC50; compound concentration which induced a response halfway between the assay baseline and maximum) were calculated.

CD69 = test: Induction of CD69 in human whole blood; format: cell-based; settings: 100% set to 1 uM of resiquimod, average where assay performed multiple times, read-out: hWB CD69 EC50
Protocol: The induction of Type I interferon (IFN) MX-1 genes and the B-cell activation marker CD69 are downstream events that occur upon activation of the TLR7 pathway. The following is a human whole blood assay that measures their induction in response to a TLR7 agonist.
Heparinized human whole blood was harvested from human subjects and treated with test TLR7 agonist compounds at 1 mM. The blood was diluted with RPMI 1640 media and Echo was used to predot 10 nL per well giving a final concentration of 1 uM (10 nL in 10 uL of blood). After mixing on a shaker for 30 sec, the plates were covered and placed in a 37° C. chamber for o/n=17 hrs. Fixing/lysis buffer was prepared (5×->1× in H2O, warm at 37° C.; Cat #BD 558049) and kept the perm buffer (on ice) for later use.
For surface markers staining (CD69): prepared surface Abs: 0.045 ul hCD14-FITC (ThermoFisher Cat #MHCD1401)+0.6 ul hCD19-ef450 (ThermoFisher Cat #48-0198-42)+1.5 ul hCD69-PE (cat #BD555531)+0.855 ul FACS buffer. Added 3 ul/well, spin1000 rpm for 1 min and mixed on shaker for 30 sec, put on ice for 30 mins. Stop stimulation after 30 minutes with 70 uL of prewarmed 1× fix/lysis buffer and use Feliex mate to resuspend (15 times, change tips for each plate) and incubate at 37 C for 10 minutes.
Centrifuge at 2000 rpm for 5 minutes aspirate with HCS plate washer, mix on shaker for 30 sec and then wash with 70 uL in dPBS and pelleted 2×s (2000 rpm for 5 min) and 50 ul wash in FACS buffer pelleted 1×s (2000 rpm for 5 min). Mix on shaker for 30 sec. For Intracellular markers staining (MX-1): Add 50 ul of BD Perm buffer III and mix on shaker for 30 sec. Incubate on ice for 30 minutes (in the dark). Wash with 50 uL of FACS buffer 2×(spin @2300 rpm×5 min after perm) followed by mixing on shaker for 30 sec. Resuspended in 20 ul of FACS buffer containing MX1 antibody ( )(4812)-Alexa 647: Novus Biologicals #NBP2-43704AF647) 20 ul FACS bf+0.8 ul hIgG+0.04 ul MX-1. Spin 1000 rpm for 1 min, mix on shaker for 30 se and the samples were incubated at RT in the dark for 45 minutes followed by washing 2×FACS buffer (spin @2300 rpm×5 min after perm). Resuspend 20 ul (35 uL total per well) of FACS buffer and cover with foil and place in 4° C. to read the following day. Plates were read on iQuePlus. The results were loaded into toolset and IC50 curves are generated in curve master. The y-axis 100% is set to 1 uM of resiquimod.

| Structure (SMILES) | EC50 (human TLR7) [nM] | EC50 (CD69; Homo sapiens, 17 h) [nM] | EC50 (CD69; 17 hrs) [nM] |
| --- | --- | --- | --- |
| CCCCNc1nc(N)nc2cnn(Cc3ncc(C4CCN(C(=O)CN5C[C@@H]6C[C@H]5CN6)CC4)cc3OC)c12 [Compound 118, 1-[4-(6-{[5-amino-7-(butylamino)-1H-pyrazolo[4,3-d]pyrimidin-1-yl]methyl}-5-methoxypyridin-3-yl)piperidin-1-yl]-2-[(1S,4S)-2,5-diazabicyclo[2.2.1]heptan-2-yl]ethan-1-one] | 716 | 890 | – |
| CCCCNc1nc(N)nc2c(C)nn(Cc3ncc(C4CCN(C(C)C)CC4)cc3OC)c12 [Compound 122, N7-butyl-1-({3-methoxy-5-[1-(propan-2-yl)piperidin-4-yl]pyridin-2-yl}methyl)-3-methyl-1H-pyrazolo[4,3-d]pyrimidine-5,7-diamine] | 193 | 18.7 | – |
| CCCCNc1nc(N)nc2cnn(Cc3ncc(C4CCN(C(=O)CCO)CC4)cc3OC)c12 [Compound 105, 1-[4-(6-{[5-amino-7-(butylamino)-1H-pyrazolo[4,3-d]pyrimidin-1-yl]methyl}-5-methoxypyridin-3-yl)piperidin-1-yl]-3-hydroxypropan-1-one] | 817 | 159 | – |
| CCCCNc1nc(N)nc2cnn(Cc3ncc(C4CCNCC4)cc3OC)c12 [Compound 101, N7-butyl-1-{[3-methoxy-5-(piperidin-4-yl)pyridin-2-yl]methyl}-1H-pyrazolo[4,3-d]pyrimidine-5,7-diamine] | 56.6 | 9.3 | – |
| CCCCNc1nc(N)nc2c(C)nn(Cc3ncc(C4CCN(C5CCOCC5)CC4)cc3OC)c12 [Compound 121, N7-butyl-1-({3-methoxy-5-[1-(oxan-4-yl)piperidin-4-yl]pyridin-2-yl}methyl)-3-methyl-1H-pyrazolo[4,3-d]pyrimidine-5,7-diamine] | 602 | 122 | – |
| CCCCNc1nc(N)nc2cnn(Cc3ncc(C4CCN(C(=O)CN5CC6(CN(C)C6)C5)CC4)cc3OC)c12 [Compound 117, 1-[4-(6-{[5-amino-7-(butylamino)-1H-pyrazolo[4,3-d]pyrimidin-1-yl]methyl}-5-methoxypyridin-3-yl)piperidin-1-yl]-2-{6-methyl-2,6-diazaspiro[3.3]heptan-2-yl}ethan-1-one] | 856 | 313 | – |
| CCC[C@@H](CCO)Nc1nc(N)nc2cnn(Cc3ncc(C4CCN(C5COC5)CC4)cc3OC)c12 [Compound 133, (3S)-3-{[5-amino-1-({3-methoxy-5-[1-(oxetan-3-yl)piperidin-4-yl]pyridin-2-yl}methyl)-1H-pyrazolo[4,3-d]pyrimidin-7-yl]amino}hexan-1-ol] | 7.6 | 5.4 | – |

Further lines, results first:

| EC50 (human TLR7) [nM] | EC50 (CD69; Homo sapiens, 17 h) [nM] | EC50 (CD69; 17 hrs) [nM] | Structure (SMILES) |
| --- | --- | --- | --- |
| 89.9 | 2.8 | – | CCC[C@@H](CCO)Nc1nc(N)nc2cnn(Cc3ncc(C4CCCCCN4)cc3OC)c12 (mixture of isomers) [Compound 183, (3S)-3-[(5-amino-1-{[5-(azepan-2-yl)-3-methoxypyridin-2-yl]methyl}-1H-pyrazolo[4,3-d]pyrimidin-7-yl)amino]hexan-1-ol] |
| 197 | 42.3 | – | CCC[C@@H](CCO)Nc1nc(N)nc2cnn(Cc3ncc(C4CCN(C(=O)CCN(C)C)CC4)cc3OC)c12 [Compound 136, 1-(4-{6-[(5-amino-7-{[(3S)-1-hydroxyhexan-3-yl]amino}-1H-pyrazolo[4,3-d]pyrimidin-1-yl)methyl]-5-methoxypyridin-3-yl}piperidin-1-yl)-3-(dimethylamino)propan-1-one] |
| 43.3 | 5.6 | – | COc1cc(C2CCN(C(C)C)CC2)cnc1Cn1ncc2nc(N)nc(NCc3cc(C)on3)c21 [Compound 142, 1-({3-methoxy-5-[1-(propan-2-yl)piperidin-4-yl]pyridin-2-yl}methyl)-N7-[(5-methyl-1,2-oxazol-3-yl)methyl]-1H-pyrazolo[4,3-d]pyrimidine-5,7-diamine] |
| 402 | 80.5 | – | CCC[C@@H](CCO)Nc1nc(N)nc2cnn(Cc3nc(C4CCN(C(=O)CN(C)C)CC4)ccc3OC)c12 [Compound 187, 1-(4-{6-[(5-amino-7-{[(3S)-1-hydroxyhexan-3-yl]amino}-1H-pyrazolo[4,3-d]pyrimidin-1-yl)methyl]-5-methoxypyridin-2-yl}piperidin-1-yl)-2-(dimethylamino)ethan-1-one] |
| 63.1 | 37.1 | – | CCCCNc1nc(N)nc2cnn(Cc3cc(F)c(N4CCN(C(=O)CN5CC(OC)C5)CC4)cc3OC)c12 [Compound 194, 1-[4-(4-{[5-amino-7-(butylamino)-1H-pyrazolo[4,3-d]pyrimidin-1-yl]methyl}-2-fluoro-5-methoxyphenyl)piperazin-1-yl]-2-(3-methoxyazetidin-1-yl)ethan-1-one] |
| 235 | 2.8 | – | CCC[C@@H](CCO)Nc1nc(N)nc2cnn(Cc3ncc(C4CCCCN4)cc3OC)c12 (stereo partly drawn) [Compound 179, (3S)-3-[(5-amino-1-{[3-methoxy-5-(piperidin-2-yl)pyridin-2-yl]methyl}-1H-pyrazolo[4,3-d]pyrimidin-7-yl)amino]hexan-1-ol] |
| 15.7 | 2.1 | – | CCC[C@@H](CCO)Nc1nc(N)nc2cnn(Cc3ncc(C4CCN(C5CC6(CCC6)C5)CC4)cc3OC)c12 [Compound 147, (3S)-3-[(5-amino-1-{[3-methoxy-5-(1-{spiro[3.3]heptan-2-yl}piperidin-4-yl)pyridin-2-yl]methyl}-1H-pyrazolo[4,3-d]pyrimidin-7-yl)amino]hexan-1-ol] |
| 6.5 | – | 0.15 | CCC[C@@H](CCO)Nc1nc(N)nc2cnn(Cc3ccc(C4CN(C(C)C)CCN4)cc3OC)c12 (stereo partly drawn) [Compound 184, (3S)-3-{[5-amino-1-({2-methoxy-4-[4-(propan-2-yl)piperazin-2-yl]phenyl}methyl)-1H-pyrazolo[4,3-d]pyrimidin-7-yl]amino}hexan-1-ol] |
| 8.8 | 0.91 | – | CCC[C@@H](CCO)Nc1nc(N)nc2cnn(Cc3ccc(C4CCCN4)cc3OC)c12 (stereo partly drawn) [Compound 175, (3S)-3-[(5-amino-1-{[2-methoxy-4-(pyrrolidin-2-yl)phenyl]methyl}-1H-pyrazolo[4,3-d]pyrimidin-7-yl)amino]hexan-1-ol] |
